Consider one compound from US7070978B2, “Method for expressing and purifying proteins using budded baculovirus” (Toudai TLO, Ltd., priority 2001, dated 2006).

This experiment has as its target S1P (Homo sapiens, UniProt Q14703). Particulars: 10 mM EDTA; SREBP2-BV + S1P-BV, 5 mM calcium, 37° C. for 12 hours, Western blot with anti-serum R004. (In general: Immunoblotting shows a protein as a band on a membrane.)

Chain of S1P (Q14703 187-1052): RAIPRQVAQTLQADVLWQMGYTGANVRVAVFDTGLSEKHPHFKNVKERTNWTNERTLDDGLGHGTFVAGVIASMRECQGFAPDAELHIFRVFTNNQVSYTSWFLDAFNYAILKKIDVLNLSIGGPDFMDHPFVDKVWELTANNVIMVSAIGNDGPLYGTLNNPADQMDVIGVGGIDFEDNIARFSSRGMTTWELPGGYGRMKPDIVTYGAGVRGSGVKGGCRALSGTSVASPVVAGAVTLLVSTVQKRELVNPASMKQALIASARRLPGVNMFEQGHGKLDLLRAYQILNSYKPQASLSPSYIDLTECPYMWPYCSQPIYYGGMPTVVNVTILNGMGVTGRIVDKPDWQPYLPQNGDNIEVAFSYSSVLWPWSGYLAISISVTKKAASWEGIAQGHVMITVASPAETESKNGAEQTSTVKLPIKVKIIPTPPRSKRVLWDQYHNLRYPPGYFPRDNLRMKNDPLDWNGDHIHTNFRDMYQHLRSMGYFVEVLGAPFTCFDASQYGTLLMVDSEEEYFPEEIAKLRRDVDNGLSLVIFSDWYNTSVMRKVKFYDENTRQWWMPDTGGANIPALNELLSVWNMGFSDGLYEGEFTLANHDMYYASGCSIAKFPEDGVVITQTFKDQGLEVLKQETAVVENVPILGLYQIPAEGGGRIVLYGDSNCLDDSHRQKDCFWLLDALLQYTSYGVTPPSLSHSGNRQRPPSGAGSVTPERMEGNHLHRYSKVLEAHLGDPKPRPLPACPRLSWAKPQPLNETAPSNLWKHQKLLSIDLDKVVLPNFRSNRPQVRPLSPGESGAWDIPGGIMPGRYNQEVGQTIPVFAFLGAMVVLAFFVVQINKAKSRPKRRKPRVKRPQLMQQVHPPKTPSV
Protocol: Sf9 cells were infected with recombinant viruses of S1P or SREBP at MOI 5. 72 hours later, the BV fraction was recovered by centrifugation as in Examples 1 and 2, and then suspended in TBS buffer (10 mM Tris, 150 mM NaCl, pH7.5). BV suspended in TBS was subjected to a protein determination with a protein determination kit (Bio-Rad). Reaction solutions of SREBP2-BV as a substrate and S1P-BV as an enzyme were prepared to have respective final concentrations of 10 μg per reaction solution. In addition, calcium ions required for activation of S1P were added to the reaction solution at a concentration, as calcium acetate, which enables to measure activity. Calcium, EDTA (pH7.4) and EGTA (pH7.4) were added to BV solution, and then added with TBS buffer (pH7.4) to a reaction volume of 20 μl, followed by incubation at 37° C. for 12 hours. Following reaction, the solution was subjected to heat treatment with 5×SDS sample buffer at 95° C. for 10 minutes, subjected to 8% SDS-PAGE and Western blot using rabbit anti-serum R004 against the amino terminal of SREBP2.
BV expressing SREBP or S1P was mixed, incubated at 37° C. for 12 hours, and then allowed to react in the presence of 5 mM calcium.

In the case of `O=C(O)CN(CCN(CC(=O)O)CC(=O)O)CC(=O)O` [EDTA], the “inhibition of degradation (cleavage) of SREBP2 by S1P” value is reported as “completely inhibited”.
